PubChem BioAssay (NCI)
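Exposure lasted 48 hours, with cells grown in 96-well plates and compounds tested at five concentrations. TGI marks complete inhibition of growth.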

Columns and labels:
Test in all cases: NCI tumour cell line growth inhibition, 48 h
SF-268 CNS = test system: SF-268 CNS
U251 CNS = test system: U251 CNS
SN12C renal = test system: SN12C renal
LXFL 529 NSCLC = test system: LXFL 529 NSCLC
OVCAR-3 ovarian = test system: OVCAR-3 ovarian
NCI-H460 lung = test system: NCI-H460 lung
786-0 renal = test system: 786-0 renal
HCC-2998 colon = test system: HCC-2998 colon
IGROV1 ovarian = test system: IGROV1 ovarian
OVCAR-8 ovarian = test system: OVCAR-8 ovarian
CAKI-1 renal = test system: CAKI-1 renal
SNB-75 CNS = test system: SNB-75 CNS
K-562 leukemia = test system: K-562 leukemia
EKVX NSCLC = test system: EKVX NSCLC
UACC-62 melanoma = test system: UACC-62 melanoma
SK-MEL-2 melanoma = test system: SK-MEL-2 melanoma
HCT-116 colon = test system: HCT-116 colon
MOLT-4 leukemia = test system: MOLT-4 leukemia
LOX IMVI melanoma = test system: LOX IMVI melanoma
SK-OV-3 ovarian = test system: SK-OV-3 ovarian
RXF 393 renal = test system: RXF 393 renal
SF-539 CNS = test system: SF-539 CNS
SK-MEL-5 melanoma = test system: SK-MEL-5 melanoma
M19-MEL melanoma = test system: M19-MEL melanoma
A498 renal = test system: A498 renal
HOP-92 NSCLC = test system: HOP-92 NSCLC
CCRF-CEM leukemia = test system: CCRF-CEM leukemia
NCI-H522 lung = test system: NCI-H522 lung
HL-60(TB) leukemia = test system: HL-60(TB) leukemia
M14 melanoma = test system: M14 melanoma
UO-31 renal = test system: UO-31 renal
MALME-3M melanoma = test system: MALME-3M melanoma
NCI-H226 lung = test system: NCI-H226 lung
DLD-1 colon = test system: DLD-1 colon
SR leukemia = test system: SR leukemia
OVCAR-4 ovarian = test system: OVCAR-4 ovarian
HOP-18 NSCLC = test system: HOP-18 NSCLC
XF 498 CNS = test system: XF 498 CNS
HOP-62 NSCLC = test system: HOP-62 NSCLC
ACHN renal = test system: ACHN renal
NCI-H23 lung = test system: NCI-H23 lung
TK-10 renal = test system: TK-10 renal
UACC-257 melanoma = test system: UACC-257 melanoma
SF-295 CNS = test system: SF-295 CNS
COLO 205 colon = test system: COLO 205 colon
KM20L2 colon = test system: KM20L2 colon
OVCAR-5 ovarian = test system: OVCAR-5 ovarian
DMS 273 small cell lung = test system: DMS 273 small cell lung
HCT-15 colon = test system: HCT-15 colon
RPMI-8226 leukemia = test system: RPMI-8226 leukemia
KM12 colon = test system: KM12 colon
A549 NSCLC = test system: A549 NSCLC
SW-620 colon = test system: SW-620 colon
SK-MEL-28 melanoma = test system: SK-MEL-28 melanoma
SNB-19 CNS = test system: SNB-19 CNS
SNB-78 CNS = test system: SNB-78 CNS
HT29 colon = test system: HT29 colon

Measured: TGI

CCCS(=O)(=O)/C(=C(\c1ccc(Br)cc1)S(=O)(=O)CCC)c1ccc(Br)cc1
> 10 µM: SF-268 CNS | U251 CNS | SN12C renal | LXFL 529 NSCLC | OVCAR-3 ovarian | NCI-H460 lung | 786-0 renal | HCC-2998 colon | IGROV1 ovarian | OVCAR-8 ovarian | CAKI-1 renal | SNB-75 CNS | K-562 leukemia | EKVX NSCLC | UACC-62 melanoma | SK-MEL-2 melanoma | HCT-116 colon | MOLT-4 leukemia | LOX IMVI melanoma | SK-OV-3 ovarian | RXF 393 renal | SF-539 CNS | SK-MEL-5 melanoma | M19-MEL melanoma | A498 renal | HOP-92 NSCLC | CCRF-CEM leukemia | NCI-H522 lung | HL-60(TB) leukemia | M14 melanoma | UO-31 renal | MALME-3M melanoma | NCI-H226 lung | DLD-1 colon | SR leukemia | OVCAR-4 ovarian | HOP-18 NSCLC | XF 498 CNS | HOP-62 NSCLC | ACHN renal | NCI-H23 lung | TK-10 renal | UACC-257 melanoma | SF-295 CNS | COLO 205 colon | KM20L2 colon | OVCAR-5 ovarian | DMS 273 small cell lung | HCT-15 colon | RPMI-8226 leukemia | KM12 colon | A549 NSCLC | SW-620 colon | SK-MEL-28 melanoma | SNB-19 CNS | SNB-78 CNS | HT29 colon
